# Legend:
# Recombinant Cat D = Recombinant Cat D (Homo sapiens (Human), UniProt P07339); assay: In vitro enzymatic Cathepsin D (Cat D) FRET assay; format: biochemical; details: read-out: IC50 IP (μM) CatD
# How it was run: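 Human Cat D expressed in CHO cells was incubated for one hour in 0.05 M citrate pH 3.5, 5 mM CHAPS, 10% DMSO final, with 20 nM quenched FRET peptide substrate. Reactions were stopped with Tris buffer raising pH to neutrality. Cleavage was read as fluorescence at excitation 500 nm, emission 580 nm.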
# human recombinant BACE1 = human recombinant BACE1 (Homo sapiens (Human), UniProt P56817); assay: In vitro enzymatic BACE1 FRET assay; format: biochemical; details: read-out: IC50 IP (μM) BACE1 enzyme
# Chain of human recombinant BACE1 (P56817 46-501): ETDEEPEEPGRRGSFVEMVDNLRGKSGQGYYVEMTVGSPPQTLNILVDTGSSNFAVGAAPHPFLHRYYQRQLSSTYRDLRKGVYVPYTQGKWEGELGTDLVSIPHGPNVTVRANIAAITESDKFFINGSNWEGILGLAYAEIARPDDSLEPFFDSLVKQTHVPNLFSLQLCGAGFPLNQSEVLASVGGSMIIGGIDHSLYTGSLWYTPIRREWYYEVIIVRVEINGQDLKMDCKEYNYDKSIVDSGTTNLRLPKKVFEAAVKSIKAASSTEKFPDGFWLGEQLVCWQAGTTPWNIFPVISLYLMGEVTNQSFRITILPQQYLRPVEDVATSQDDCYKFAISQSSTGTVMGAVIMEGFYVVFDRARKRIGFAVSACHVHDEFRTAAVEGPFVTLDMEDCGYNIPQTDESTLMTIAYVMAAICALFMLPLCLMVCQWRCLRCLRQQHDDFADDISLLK
# How it was run: (§1)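 Protease purified by Ni-NTA chromatography; start with FRET substrate (50 nM); incubate 1 h; quench with Tris to neutral pH; read fluorescence ex 488 / em 590 nm.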
# human recombinant BACE2 = human recombinant BACE2 (Homo sapiens (Human), UniProt Q9Y5Z0); assay: In vitro enzymatic BACE2 FRET assay; format: biochemical; details: read-out: IC50 IP (μM) BACE2 enzyme
# Chain of human recombinant BACE2 (Q9Y5Z0 63-518): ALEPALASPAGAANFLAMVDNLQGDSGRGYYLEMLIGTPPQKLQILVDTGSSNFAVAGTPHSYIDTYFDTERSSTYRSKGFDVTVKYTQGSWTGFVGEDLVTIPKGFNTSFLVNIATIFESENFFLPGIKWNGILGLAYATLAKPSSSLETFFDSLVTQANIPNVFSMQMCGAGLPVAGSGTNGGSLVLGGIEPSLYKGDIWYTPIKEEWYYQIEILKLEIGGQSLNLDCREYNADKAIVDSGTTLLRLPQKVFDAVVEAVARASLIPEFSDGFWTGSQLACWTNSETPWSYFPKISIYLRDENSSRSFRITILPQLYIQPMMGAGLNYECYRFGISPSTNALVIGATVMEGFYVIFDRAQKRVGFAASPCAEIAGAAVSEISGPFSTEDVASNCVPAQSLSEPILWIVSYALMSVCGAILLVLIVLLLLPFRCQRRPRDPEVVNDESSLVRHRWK
# How it was run: as §1
# Aβ 40 in rat CSF = assay: In vivo inhibition of beta-secretase: Aβ40 reduction in rat CSF; details: 10 mpk, after 4 h
# How it was run: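 Male Sprague Dawley rats (200 g) dosed orally in 2% HPMC, 1% Tween80, pH 2.2, at 3, 10 or 30 mg/kg; CSF and brain taken 4 h later. Brain homogenate centrifuged at 355,000 g; Aβ40 measured by ECL sandwich ELISA (4G8 capture, Abeta40 C-terminal Fab detection), as % reduction versus vehicle controls.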
# Aβ 40 in rat brain = assay: In vivo inhibition of beta-secretase: Aβ40 reduction in rat brain; details: 10 mpk, after 4 h
# How it was run: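 Rats were dosed by oral gavage at up to 100 mg/kg in 2% HPMC, 1% Tween80, pH 2.2, with vehicle-only controls. Supernatant Aβ40 was measured by ECL sandwich ELISA with biotinylated-4G8 capture and C-terminal Fab40 detection.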
# [1] = test system: Aβ40 in conditioned medium of cells stably expressing Amyloid Precursor Protein (APP); assay: In vitro BACE-1 cell-based assay (Aβ40 sandwich ELISA); details: read-out: IC50 IP (μM) BACE1 cell
# How it was run: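 APP-expressing cells treated 24 h at 37 °C with compound in 10-point dose response (top 100 μM or 10 μM, 0.1% DMSO final). Secreted Aβ40 in conditioned medium quantified by sandwich ELISA (pAb40 capture, biotinylated 6E10 detection, time-resolved europium fluorescence); IC50 from percent inhibition versus concentration.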
# Chain of Recombinant Cat D (P07339 65-412): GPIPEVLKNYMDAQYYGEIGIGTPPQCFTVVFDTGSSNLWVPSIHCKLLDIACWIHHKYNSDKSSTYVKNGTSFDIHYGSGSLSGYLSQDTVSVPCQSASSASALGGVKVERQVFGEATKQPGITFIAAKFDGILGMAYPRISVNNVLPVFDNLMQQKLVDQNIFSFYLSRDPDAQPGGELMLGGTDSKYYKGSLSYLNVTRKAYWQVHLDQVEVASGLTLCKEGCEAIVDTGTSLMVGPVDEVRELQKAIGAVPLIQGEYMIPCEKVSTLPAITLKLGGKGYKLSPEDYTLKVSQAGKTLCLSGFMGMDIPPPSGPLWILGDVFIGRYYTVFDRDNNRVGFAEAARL
Structure (SMILES),IC50 (Recombinant Cat D) [µM],IC50 (human recombinant BACE1) [µM],IC50 (human recombinant BACE2) [µM],% Aβ 40 reduction in rat CSF at 10 mpk (Aβ 40 in rat CSF) [%],% Aβ 40 reduction in rat brain at 10 mpk (Aβ 40 in rat brain) [%],IC50 [1] [µM]
"C[C@]1(c2cc(Nc3nccc4nc(OCc5ncco5)cnc34)ccc2F)N=C(N)S[C@]2(CO)[C@H]1C2(F)F [Example 705, ((1S,5S,6R)-3-amino-7,7-difluoro-5-(2-fluoro-5-((2-(1,3-oxazol-2-ylmethoxy)pyrido[3,4-b]pyrazin-5-yl)amino)phenyl)-5-methyl-2-thia-4-azabicyclo[4.1.0]hept-3-en-1-yl)methanol]",183,0.00186,0.0184,28,1,0.0035
"C#CCOc1cnc2c(Nc3ccc(F)c([C@@]4(C)N=C(N)S[C@]5(CO)[C@H]4C5(F)F)c3)nccc2n1 [Example 707, ((1S,5S,6R)-3-amino-7,7-difluoro-5-(2-fluoro-5-((2-(2-propyn-1-yloxy)pyrido[3,4-b]pyrazin-5-yl)amino)phenyl)-5-methyl-2-thia-4-azabicyclo[4.1.0]hept-3-en-1-yl)methanol]",550,0.000636,0.0185,27,25,0.00422
"C[C@]1(c2cc(NC(=O)c3cnc(OCC(F)(F)C(F)F)cn3)ccc2F)N=C(N)S[C@]2(CO)[C@H]1C2(F)F [Example 708, N-(3-((1S,5S,6R)-3-amino-7,7-difluoro-1-(hydroxymethyl)-5-methyl-2-thia-4-azabicyclo[4.1.0]hept-3-en-5-yl)-4-fluorophenyl)-5-(2,2,3,3-tetrafluoropropoxy)-2-pyrazinecarboxamide]",438,0.000969,0.107,13,−4,0.0215
"C#CCOc1cnc2c(Nc3ccc(F)c([C@@]4(C)N=C(N)S[C@]5(C(C)(C)O)[C@H]4C5(F)F)c3)nccc2n1 [Example 712, 2-((1S,5S,6R)-3-amino-7,7-difluoro-5-(2-fluoro-5-((2-(2-propyn-1-yloxy)pyrido[3,4-b]pyrazin-5-yl)amino)phenyl)-5-methyl-2-thia-4-azabicyclo[4.1.0]hept-3-en-1-yl)-2-propanol]",476,0.000782,0.0516,52,32,0.00904
"COC[C@]12C[C@H]1[C@@](C)(c1cc(Nc3nccc4cc(OCc5ncco5)cnc34)cc(F)c1F)N=C(N)S2 [Example 727, N-(3-((1S,5S,6S)-3-amino-1-(methoxymethyl)-5-methyl-2-thia-4-azabicyclo[4.1.0]hept-3-en-5-yl)-4,5-difluorophenyl)-3-(1,3-oxazol-2-ylmethoxy)-1,7-naphthyridin-8-amine]",779,0.00798,0.359,38,18,0.00962
"COC[C@]12C[C@H]1[C@@](C)(c1cc(Nc3nccc4cc(OCc5cocn5)cnc34)cc(F)c1F)N=C(N)S2 [Example 728, N-(3-((1S,5S,6S)-3-amino-1-(methoxymethyl)-5-methyl-2-thia-4-azabicyclo[4.1.0]hept-3-en-5-yl)-4,5-difluorophenyl)-3-(1,3-oxazol-4-ylmethoxy)-1,7-naphthyridin-8-amine]",859,0.0238,0.553,31,23,0.0127
"CN(C)C(=O)/C=C/[C@]12C[C@H]1[C@@](CF)(c1cc(Nc3nccc4cc(OCc5ncco5)cnc34)ccc1F)N=C(N)S2 [Example 770, (2E)-3-((1R,5S,6S)-3-amino-5-(fluoromethyl)-5-(2-fluoro-5-((3-(1,3-oxazol-2-ylmethoxy)-1,7-naphthyridin-8-yl)amino)phenyl)-2-thia-4-azabicyclo[4.1.0]hept-3-en-1-yl)-N,N-dimethyl-2-propenamide]",311,0.00294,0.143,22,6,0.00281
"C#CCOc1cnc(C(=O)Nc2ccc(F)c([C@@]3(C)N=C(N)S[C@@]4(C(=O)NC5CC5)C[C@H]43)c2)cn1 [Example 795, (1S,5S,6S)-3-amino-N-cyclopropyl-5-(2-fluoro-5-(((5-(2-propyn-1-yloxy)-2-pyrazinyl)carbonyl)amino)phenyl)-5-methyl-2-thia-4-azabicyclo[4.1.0]hept-3-en-1-carboxamide]",16.6,0.0003,0.0104,76,70,0.000608
"C[C@]1(c2cc(Nc3ncnc4cc(C#N)cnc34)cc(F)c2F)N=C(N)S[C@@]2(CF)C[C@H]21 [Example 801, 4-((3-((1S,5S,6S)-3-amino-1-(fluoromethyl)-5-methyl-2-thia-4-azabicyclo[4.1.0]hept-3-en-5-yl)-4,5-difluorophenyl)amino)pyrido[3,2-d]pyrimidine-7-carbonitrile]",145,0.00613,0.0163,74,68,0.0137
"C[C@]1(c2cc(Nc3nccc4nc(OCc5ncco5)cnc34)cc(F)c2F)N=C(N)S[C@@]2(CF)C[C@H]21 [Example 802, N-(3-((1S,5S,6S)-3-amino-1-(fluoromethyl)-5-methyl-2-thia-4-azabicyclo[4.1.0]hept-3-en-5-yl)-4,5-difluorophenyl)-2-(1,3-oxazol-2-ylmethoxy)pyrido[3,4-b]pyrazin-5-amine]",310,0.000992,0.0334,59,50,0.00497
"Cc1nc(OCc2ncco2)cnc1C(=O)Nc1cc(F)c(F)c([C@@]2(C)N=C(N)S[C@@]3(CF)C[C@H]32)c1 [Example 803, N-(3-((1S,5S,6S)-3-amino-1-(fluoromethyl)-5-methyl-2-thia-4-azabicyclo[4.1.0]hept-3-en-5-yl)-4,5-difluorophenyl)-3-methyl-5-(1,3-oxazol-2-ylmethoxy)-2-pyrazinecarboxamide]",1060,0.000643,0.0157,59,45,0.00228
"C#CCOc1cnc2c(Nc3cc(F)c(F)c([C@@]4(C)N=C(N)S[C@@]5(C(F)F)C[C@@H]45)c3)nccc2n1 [Example 805, N-(3-((1S,5S,6S)-3-amino-1-(difluoromethyl)-5-methyl-2-thia-4-azabicyclo[4.1.0]hept-3-en-5-yl)-4,5-difluorophenyl)-2-(2-propyn-1-yloxy)pyrido[3,4-b]pyrazin-5-amine]",27,0.000222,0.0189,59,53,0.00497
"C#CCOc1cnc2c(Nc3cc(F)c(F)c([C@@]4(C)N=C(N)S[C@@]5(CF)C[C@H]54)c3)nccc2n1 [Example 806, N-(3-((1S,5S,6S)-3-amino-1-(fluoromethyl)-5-methyl-2-thia-4-azabicyclo[4.1.0]hept-3-en-5-yl)-4,5-difluorophenyl)-2-(2-propyn-1-yloxy)pyrido[3,4-b]pyrazin-5-amine]",122,0.000489,0.0242,70,65,0.00772
"C[C@]1(c2cc(Nc3ncnc4cc(OCc5ncco5)cnc34)cc(F)c2F)N=C(N)S[C@@]2(CF)C[C@H]21 [Example 808, N-(3-((1S,5S,6S)-3-amino-1-(fluoromethyl)-5-methyl-2-thia-4-azabicyclo[4.1.0]hept-3-en-5-yl)-4,5-difluorophenyl)-7-(1,3-oxazol-2-ylmethoxy)pyrido[3,2-d]pyrimidin-4-amine]",127,0.000866,0.0383,44,26,0.00111
"C[C@]1(c2cc(Nc3ncnc4cc(OCc5ncco5)cnc34)cc(F)c2F)N=C(N)S[C@@]2(C(F)F)C[C@@H]12 [Example 812, N-(3-((1S,5S,6S)-3-amino-1-(difluoromethyl)-5-methyl-2-thia-4-azabicyclo[4.1.0]hept-3-en-5-yl)-4,5-difluorophenyl)-7-(1,3-oxazol-2-ylmethoxy)pyrido[3,2-d]pyrimidin-4-amine]",118,0.000827,0.0642,52,38,0.00167
